Experimental data published in patent US20230406906A1, “SERPIN PEPTIDES AND METHODS OF USING THE SAME” (SERPIN PHARMA, LLC, priority 2022, published 2023).

Assays:
NFκB [1] = test: NFκB reporter assay (THP1-XBlue-MD2-CD14 cells, LPS, SEAP read-out); type: cell-based; conditions: peptide 50 μg/ml before LPS 5 ng/ml, overnight
Method: The reporter cells (THP1-XBlue-MD2-CD14 cells) were treated with each peptide (50 μg/ml) before being insulted with LPS (5 ng/ml) and incubated overnight. The NFκB inducible Secreted Embryonic Alkaline Phosphatase (SEAP) was measured in the supernatant and read for absorbance.

C57BL/6J mice = test: Intraplantar capsaicin model of acute nociception; type: in vivo; conditions: male mice, 2 μg/g 1 h before capsaicin, 10 min
Method: For the capsaicin studies, male (n=41) and female (n=37) mice were acclimated to the behavior testing facility for at least 1 h. Capsaicin was dissolved in 20% (2-hydroxypropyl)-β-cyclodextrin (Sigma-Aldrich, St. Louis, MO, USA) solution. […] Subsequently, 10 μl of 2 μg/μl capsaicin solution was injected into the plantar area of left hind paw. Immediately after capsaicin injection, mice were placed in a plexiglass box. Two observers, blinded to treatments, recorded the time spent licking and flinching the left hind paw over 10 min.

LRP1 = biological target: T1, LRP1 (Rattus norvegicus, UniProt G3V928); test: Cell signaling analysis in PC12 cells (phospho-ERK1/2, phospho-Akt immunoblot); type: cell-based
T1 construct: host or cells: rat PC12 cells
T1 sequence (G3V928 20-3944 limits assumed): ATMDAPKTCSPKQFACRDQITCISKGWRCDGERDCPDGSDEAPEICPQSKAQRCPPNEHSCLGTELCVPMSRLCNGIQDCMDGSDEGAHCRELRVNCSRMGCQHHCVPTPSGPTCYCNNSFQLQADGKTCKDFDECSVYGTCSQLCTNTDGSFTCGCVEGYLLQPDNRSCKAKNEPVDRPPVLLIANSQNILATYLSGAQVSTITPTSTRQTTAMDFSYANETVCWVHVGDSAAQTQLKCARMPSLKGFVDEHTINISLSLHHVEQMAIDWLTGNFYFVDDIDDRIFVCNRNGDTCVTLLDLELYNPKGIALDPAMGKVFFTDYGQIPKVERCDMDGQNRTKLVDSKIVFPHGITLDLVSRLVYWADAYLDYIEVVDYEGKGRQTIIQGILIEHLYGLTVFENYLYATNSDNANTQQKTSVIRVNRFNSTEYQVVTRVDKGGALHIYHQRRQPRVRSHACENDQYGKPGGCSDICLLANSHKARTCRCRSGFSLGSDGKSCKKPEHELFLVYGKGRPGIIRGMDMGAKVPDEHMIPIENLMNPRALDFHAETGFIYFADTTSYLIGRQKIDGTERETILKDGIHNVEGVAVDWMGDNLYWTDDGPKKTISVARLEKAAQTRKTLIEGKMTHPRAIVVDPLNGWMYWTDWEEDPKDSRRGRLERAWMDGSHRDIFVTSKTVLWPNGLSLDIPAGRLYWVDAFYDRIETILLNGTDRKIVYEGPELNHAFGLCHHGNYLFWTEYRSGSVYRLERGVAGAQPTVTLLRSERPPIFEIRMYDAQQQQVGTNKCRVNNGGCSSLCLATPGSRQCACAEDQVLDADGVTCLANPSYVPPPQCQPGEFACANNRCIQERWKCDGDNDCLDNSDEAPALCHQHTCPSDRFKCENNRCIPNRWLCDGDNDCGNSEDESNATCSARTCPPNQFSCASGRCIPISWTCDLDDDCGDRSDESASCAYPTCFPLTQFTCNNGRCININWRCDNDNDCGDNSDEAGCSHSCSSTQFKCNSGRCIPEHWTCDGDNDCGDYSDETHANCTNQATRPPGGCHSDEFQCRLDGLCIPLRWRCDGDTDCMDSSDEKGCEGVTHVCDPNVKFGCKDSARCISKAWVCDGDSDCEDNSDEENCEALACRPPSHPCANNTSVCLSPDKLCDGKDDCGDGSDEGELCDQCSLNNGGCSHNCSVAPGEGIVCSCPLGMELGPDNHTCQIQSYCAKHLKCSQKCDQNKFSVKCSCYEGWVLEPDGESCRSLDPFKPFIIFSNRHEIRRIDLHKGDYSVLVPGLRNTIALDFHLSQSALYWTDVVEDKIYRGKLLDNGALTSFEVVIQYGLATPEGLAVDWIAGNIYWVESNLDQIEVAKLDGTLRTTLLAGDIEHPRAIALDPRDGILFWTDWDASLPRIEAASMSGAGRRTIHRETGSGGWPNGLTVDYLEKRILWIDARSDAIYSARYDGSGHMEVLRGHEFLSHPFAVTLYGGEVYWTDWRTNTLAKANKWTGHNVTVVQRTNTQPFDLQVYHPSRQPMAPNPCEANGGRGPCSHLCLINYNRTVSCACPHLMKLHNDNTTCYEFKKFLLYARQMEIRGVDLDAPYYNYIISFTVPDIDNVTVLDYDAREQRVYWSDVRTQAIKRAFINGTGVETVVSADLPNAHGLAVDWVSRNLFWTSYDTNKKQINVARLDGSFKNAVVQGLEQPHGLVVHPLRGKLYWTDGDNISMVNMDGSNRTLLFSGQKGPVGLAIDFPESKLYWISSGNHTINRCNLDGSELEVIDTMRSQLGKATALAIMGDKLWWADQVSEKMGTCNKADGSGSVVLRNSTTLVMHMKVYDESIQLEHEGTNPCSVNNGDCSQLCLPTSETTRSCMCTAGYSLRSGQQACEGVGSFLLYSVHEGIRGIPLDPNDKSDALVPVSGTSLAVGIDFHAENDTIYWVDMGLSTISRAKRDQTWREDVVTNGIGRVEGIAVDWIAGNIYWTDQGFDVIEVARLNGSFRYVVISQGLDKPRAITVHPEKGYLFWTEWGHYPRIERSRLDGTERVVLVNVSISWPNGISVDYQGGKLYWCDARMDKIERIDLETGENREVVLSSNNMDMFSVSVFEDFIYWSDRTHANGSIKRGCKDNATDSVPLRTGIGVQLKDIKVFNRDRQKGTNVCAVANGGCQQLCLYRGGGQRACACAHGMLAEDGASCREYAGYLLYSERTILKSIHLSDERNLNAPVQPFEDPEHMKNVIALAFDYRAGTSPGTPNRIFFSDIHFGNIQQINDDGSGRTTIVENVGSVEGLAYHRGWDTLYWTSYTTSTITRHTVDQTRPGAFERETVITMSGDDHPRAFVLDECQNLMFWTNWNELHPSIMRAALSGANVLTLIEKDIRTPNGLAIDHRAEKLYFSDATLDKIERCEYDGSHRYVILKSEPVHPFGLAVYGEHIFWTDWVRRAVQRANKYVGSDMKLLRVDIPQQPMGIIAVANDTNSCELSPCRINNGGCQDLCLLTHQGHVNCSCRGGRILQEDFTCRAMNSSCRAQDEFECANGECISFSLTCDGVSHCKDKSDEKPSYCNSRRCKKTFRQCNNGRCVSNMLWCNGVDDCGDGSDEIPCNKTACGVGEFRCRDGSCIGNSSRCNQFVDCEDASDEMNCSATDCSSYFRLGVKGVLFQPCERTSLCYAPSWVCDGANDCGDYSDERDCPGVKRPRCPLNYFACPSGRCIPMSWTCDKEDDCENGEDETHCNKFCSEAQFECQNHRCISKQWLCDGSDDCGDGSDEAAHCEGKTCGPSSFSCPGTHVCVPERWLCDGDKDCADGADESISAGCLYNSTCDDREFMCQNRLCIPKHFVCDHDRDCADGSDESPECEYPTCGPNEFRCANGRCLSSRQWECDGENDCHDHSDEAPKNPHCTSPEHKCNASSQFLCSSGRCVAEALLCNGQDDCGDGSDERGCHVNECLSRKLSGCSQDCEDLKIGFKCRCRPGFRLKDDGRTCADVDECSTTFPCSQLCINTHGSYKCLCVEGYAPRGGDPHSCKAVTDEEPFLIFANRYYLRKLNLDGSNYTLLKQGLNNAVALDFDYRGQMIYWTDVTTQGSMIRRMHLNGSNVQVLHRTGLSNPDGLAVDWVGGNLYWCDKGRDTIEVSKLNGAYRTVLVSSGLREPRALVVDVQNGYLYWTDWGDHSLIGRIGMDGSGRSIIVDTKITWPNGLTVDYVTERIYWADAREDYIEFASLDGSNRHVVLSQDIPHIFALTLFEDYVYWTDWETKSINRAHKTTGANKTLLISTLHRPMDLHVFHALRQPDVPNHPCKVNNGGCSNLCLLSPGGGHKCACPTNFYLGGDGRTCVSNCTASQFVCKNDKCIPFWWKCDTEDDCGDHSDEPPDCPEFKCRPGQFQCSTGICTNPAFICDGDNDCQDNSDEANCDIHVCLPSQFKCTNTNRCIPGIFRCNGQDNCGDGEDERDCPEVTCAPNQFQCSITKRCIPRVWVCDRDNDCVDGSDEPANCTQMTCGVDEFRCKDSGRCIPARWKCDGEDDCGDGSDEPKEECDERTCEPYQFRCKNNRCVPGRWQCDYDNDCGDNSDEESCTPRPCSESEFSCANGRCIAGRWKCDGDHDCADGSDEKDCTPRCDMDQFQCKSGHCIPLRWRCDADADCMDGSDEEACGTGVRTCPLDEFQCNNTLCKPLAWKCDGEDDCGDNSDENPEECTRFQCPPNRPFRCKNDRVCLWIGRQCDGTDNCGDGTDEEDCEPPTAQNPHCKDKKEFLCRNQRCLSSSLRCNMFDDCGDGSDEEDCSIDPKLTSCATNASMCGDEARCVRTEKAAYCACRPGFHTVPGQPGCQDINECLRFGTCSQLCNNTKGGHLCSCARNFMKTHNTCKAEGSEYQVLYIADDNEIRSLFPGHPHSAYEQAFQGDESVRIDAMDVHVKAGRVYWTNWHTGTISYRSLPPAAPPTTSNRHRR
T1 sequence (G3V928 3945-4545 partner limits assumed): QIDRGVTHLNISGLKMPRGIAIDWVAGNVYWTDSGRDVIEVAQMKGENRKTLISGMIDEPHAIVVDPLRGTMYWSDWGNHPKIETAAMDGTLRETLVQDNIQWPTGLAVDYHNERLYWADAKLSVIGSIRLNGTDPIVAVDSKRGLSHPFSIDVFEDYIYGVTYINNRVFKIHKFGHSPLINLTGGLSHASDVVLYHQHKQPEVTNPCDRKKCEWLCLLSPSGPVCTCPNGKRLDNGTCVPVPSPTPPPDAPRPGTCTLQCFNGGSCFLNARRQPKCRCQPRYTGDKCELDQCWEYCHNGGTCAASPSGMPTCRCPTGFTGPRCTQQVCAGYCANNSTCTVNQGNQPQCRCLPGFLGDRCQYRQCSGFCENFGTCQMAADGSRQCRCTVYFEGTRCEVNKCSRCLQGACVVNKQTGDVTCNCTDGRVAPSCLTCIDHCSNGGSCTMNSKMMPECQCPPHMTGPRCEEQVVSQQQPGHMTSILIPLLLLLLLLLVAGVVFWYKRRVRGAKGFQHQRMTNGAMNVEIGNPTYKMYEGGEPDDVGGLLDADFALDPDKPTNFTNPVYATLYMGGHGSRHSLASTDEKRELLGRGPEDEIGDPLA
Method: Cell signaling analysis: Rat PC12 cells were purchased from ATCC (CRL-1721). PC12 cells were maintained in high glucose DMEM (Gibco, USA) containing 10% heat-inactivated FBS (Gibco, USA), 5% HyClone heat-inactivated horse serum (Cytiva, USA), penicillin (100 units/ml) and streptomycin ([…]) in 6-well plates that were pre-coated with 0.01 mg/ml type IV collagen (Sigma-Aldrich, St. Louis, MO, USA). Cells were transferred to serum-free medium (SFM) 4 h prior to adding effectors, and then treated with SP163M (2.4, 24 or 240 nM); EI-tPA (12 nM), NGF (0.36 nM), or vehicle (PBS) for 10 min. In some cases, cells were pre-incubated with the competitive antagonist of LRP1, GST-RAP (150 nM) for 15 min or electroporated using the Rat Neuron Nucleofector Amaxa Kit (Lonza Biosciences) and incubated with siRNA to silence LRP1 expression (siLRP1; M-094191-01-0010, Dharmacon) for 48 h. Control cells were transfected with non-targeting control (NTC) siRNA (NTC; D-001810-10-05, Dharmacon). Cells were rinsed with ice-cold PBS and proteins were extracted in RIPA buffer (20 mM sodium phosphate, 150 mM NaCl, pH 7.4, 1% Triton X-100, 0.5% sodium deoxycholate, 0.1% SDS) supplemented with protease and phosphatase inhibitors (Roche Diagnostics, USA). After 30 min on ice, lysates were centrifuged at 15000×g for 5 min, supernatant collected and stored at −20° C. Equal amounts of protein from cell lysates (20 μg), as determined by BCA Protein Assay (ThermoFisher Scientific, Waltham, MA, USA), were subjected to 10% SDS-PAGE and electro-transferred to nitrocellulose membranes. The membranes were blocked with 5% nonfat dried milk and then incubated with primary anti-phospho-AKT (Cell Signaling Technology, Danvers, MA, USA; cat #9271S; 1:1000), anti-phospho-ERK1/2 (Cell Signaling Technology, Danvers, MA, USA; cat #9101S; 1:1000), anti-LRP1 (Cell Signaling Technology, Danvers, MA, USA; cat #64099S; 1:1000) or anti total-ERK1/2 (Cell Signaling Technology, Danvers, MA, USA; cat #91012S; 1:1000). Immunoblots were developed using Radiance, Radiance Q, and Radiance Plus chemiluminescent substrates and imaged using a BioRad ChemiDoc Imaging System (Bio-Rad, Hercules, CA, USA).

STAT6 = test: IL-13 stimulated STAT6 phosphorylation in esophageal EPC2 cells (western blot); type: cell-based, Human; conditions: 30 minutes post IL-13 induction
Method: Esophageal EPC2 cells were treated with vehicle (ddw), A1AT or SP163M. Cells were collected at time-points indicated and western blot analysis of phospho-specific STAT6 was analyzed. […] Using CRISPER/CAS9 technology, an LRP1 knockout esophageal EPC2 cell line was created.

mice [2] = test: OVA-induced allergic inflammation model, eosinophils in BALF by flow cytometry; type: in vivo
Method: FIG. 15A: mice were subjected to the OVA-challenge allergic inflammation model and treated with vehicle, SP16, or A1AT during the challenge phase. The BALF was collected and analyzed for the percent of eosinophils and compared to saline (non-challenged) mice, vehicle OVA induced mice, or SP16 treated OVA induced mice.
The impact of SP16 treatment on eosinophilic infiltration in mice was assessed using the OVA-induced allergic inflammation model. The number of eosinophils in the bronchoalveolar lavage fluid was quantified by flow cytometry.

CCL24 = test: OVA-challenge allergic inflammation model, BALF CCL24 via ELISA; type: in vivo; conditions: treated during OVA challenge phase, sensitized mice
Method: (§1) Mice were subjected to the OVA-challenge allergic inflammation model and treated with vehicle or SP16 during the challenge phase. The bronchoalveolar lavage fluid (BALF) was analyzed for cytokines via ELISA.

CCL26 = CCL26 release by esophageal epithelial cells (EPC2); type: cell-based, Human
TSLP [3] = test: MC903 AD model, TSLP in ears and serum by ELISA; type: in vivo; conditions: topical, vs MC903 treated mice
Method: (§2) Mice were treated with SP16 in 70% EtOH (MC903+SP16) or drug vehicle (MC903). Normal control (NC) mice were treated with EtOH only. Ears were measured for PAR2 protein expression through western blot analysis (quantitative analysis after normalization to beta-actin shown) (n=3-5). TSLP was measured in both the ears and serum by ELISA (N=3-5). Scratching was assessed over a 3 minute period after a 5-minute acclimatization period and the number of scratches are shown (n=3). IL-4 was measured in ear lysate via ELISA (N=3-5).

PAR2 = test: MC903 AD model, PAR2 protein expression in ears (western blot); type: in vivo, mice; conditions: topical, normalized to beta-actin
Method: as §2

IL-2 = test: OVA-challenge allergic inflammation model, BALF IL-2 via ELISA; type: in vivo; conditions: treated during OVA challenge phase, sensitized mice
Method: as §1

IL-4 = test: MC903 AD model, IL-4 in ear lysate via ELISA; type: in vivo, mice; conditions: topical
Method: as §2

IL-1a = test: OVA-challenge allergic inflammation model, BALF IL-1a via ELISA; type: in vivo; conditions: treated during OVA challenge phase, sensitized mice
Method: as §1

TSLP [4] = test: Poly I:C-induced TSLP production by SPINK7 knockout EPC2 cells (ELISA); type: cell-based, Human; conditions: SPINK7 knockout esophageal cells, Poly I:C 5 μg/ml, 8 hours
Method: FIG. 12A: Poly I:C-induced TSLP production by SPINK7 knockout EPC2 cells (Human esophageal epithelial cells). SPINK7 KO cells and control cells were plated in high calcium and high density, for 48 hours before being treated with SP16 or 7G and Poly I:C (5 μg/ml, or untreated) for 8 hours. TSLP production in the supernatant was measured by ELISA. FIG. 12B: primary esophageal epithelial cells (EPC2) were treated with SP16 and then stimulated with IL-13, a TH2 response mediated cytokine, to induce CCL26.
SP16 reduces several key cytokines involved in allergic responses. Upon knockout of SPINK7, esophageal epithelial cells release exacerbated levels of TSLP. TSLP is a key mediator of immune cell responses upon activation to an insult such as allergens.

mice [5] = test: MC903 AD-like inflammatory skin model, topical treatment (dermatitis score, ear volume, scratching); type: in vivo
Method: SP16 (in 70% ethanol) was applied topically to the ears on the days of the MC903 applications (MC903+SP16). Drug vehicle (70% EtOH) was applied to control animals (MC903) and normal control animals (NC) received EtOH in place of MC903. In-life parameters: Dermatitis score (FIG. 16A) and ear volume (FIG. 16B) measured on days 0, 3, 7, 9, 11 and 14. […] Clinical Dermatitis Score (score 0-4 for each parameter)—erythema, scale/dryness, edema, excoriation/erosion (total score 0-16).
as §2

[6] = biological target: LRP1 (low-density lipoprotein receptor-related protein 1) on rat PC12 cells (rat) (UniProt G3V928); test: cell-based or functional assay
NFκB [7] = test: NFκB reporter assay (THP1-XBlue-MD2-CD14 cells, LPS, SEAP read-out); type: cell-based; conditions: without LPS

Substance: R R R V K F N K P F V F L M R R R (RRRVKFNKPFVFLMRRR) [SP22]
- NFκB activity (NFκB inducible SEAP in supernatant) (NFκB [1]): the NFκB activity was significantly reduced

Substance: EI-tPA: Recombinant human EI-tPA, derivative of tissue-type plasminogen activator, known LRP1 agonist [reference compound]
- capsaicin induced acute pain-related behavior (time spent licking) (C57BL/6J mice): blocked the capsaicin induced acute pain-related behavior
- activation of ERK1/2 in cells transfected with LRP1-specific siRNA (LRP1; 48 h after transfection): ERK1/2 was not activated
- activation of ERK1/2 in cells transfected with NTC siRNA (LRP1; 48 h after transfection): also robustly activated ERK1/2

Substance: V R F N R P F L (VRFNRPFL) [SP31]
- NFκB activity (NFκB inducible SEAP in supernatant) (NFκB [1]): the anti-inflammatory activity of the peptide was lost

Substance: R R R V R F N R P F L R R R (RRRVRFNRPFLRRR) [SP32]
- NFκB activity (NFκB inducible SEAP in supernatant) (NFκB [1]): could not be restored with the poly arginine flanks

Substance: A1AT: alpha-1 antitrypsin, the prototypical SERPIN
- STAT6 phosphorylation (STAT6): STAT6 was phosphorylated in vehicle and A1AT treated cells

Substance: RRRVKFNKPFVFLMIEQNTKRRR (RRRVKFNKPFVFLMIEQNTKRRR) [SP21]
- NFκB activity (NFκB inducible SEAP in supernatant) (NFκB [1]): NFkB inhibition increased as well relative to SP16

Substance: V K F N K P F V F L M I E Q N T K (VKFNKPFVFLMIEQNTK; SP16 peptide core sequence including the LRP1 binding site; listed as Homo sapiens)
- eosinophil infiltration into the lungs (BALF) (mice [2]): significantly (p=0.04) reduces eosinophil infiltration into the lungs
- CCL24 in BALF (CCL24): significantly reduces CCL24 following OVA-challenge in sensitized mice
- CCL26 release (CCL26; EPC2 cells stimulated with IL-13): significantly reduced CCL26 release dose dependently
- Poly I:C mediated CCL26 release (CCL26; SPINK7 knockout esophageal cells): effective in significantly reducing Poly I:C mediated TSLP and CCL26 release
- systemic (serum) and local (ear) TSLP (TSLP [3]): a significant reduction in systemic (serum) and local (ear) TSLP compared to MC903 treated mice
- PAR2 protein expression in ears (PAR2): PAR2 and TSLP inhibition
- IL-2 in BALF (IL-2): significantly reduces IL-2 following OVA-challenge in sensitized mice
- IL-4 release in the skin tissue (IL-4): significantly reduced in SP16-treated animals
- IL-1a in BALF (IL-1a): significantly reduces IL-1a following OVA-challenge in sensitized mice
- Poly I:C mediated TSLP release (TSLP [4]): effective in significantly reducing Poly I:C mediated TSLP and CCL26 release
- activation of ERK1/2 over time (LRP1; 240 nM, 0-30 min): robustly activated ERK1/2 from 5 to 30 min
- lowest concentration activating phospho-ERK1/2 (LRP1; 10 min): 24 nM
- activation of ERK1/2 in cells transfected with NTC siRNA (LRP1; 48 h after transfection): ERK1/2 was robustly activated
- disease improvement (dermatitis score, ear volume) (mice [5]; topical solution (1%) in 70% ethanol, 14-day period, vs vehicle): a significant improvement in disease vs. vehicle-treated mice
- pruritis (number of scratches) (mice [5]; topical, vs vehicle (MC903) treated mice): significantly reduces pruritis compared to vehicle (MC903) treated mice
- NFκB activity (NFκB inducible SEAP in supernatant) (NFκB [1]): capable of reducing NFκB activity

Substance: V K F N K P F V F L M (VKFNKPFVFLM) [SP20]
- NFκB activity (NFκB inducible SEAP in supernatant) (NFκB [1]): did not have an inhibitory effect

Substance: FPKMVPQFNTELKIFPEVNIK (FPKMVPQFNTELKIFPEVNIK) [SP34, reference compound]
- NFκB activity (NFκB inducible SEAP in supernatant) (NFκB [1]): neither the scrambled core control peptide nor the AAT 0-36 fragment decreased the NFκB activity

Substance: Receptor associated protein expressed as a glutathione-S-transferase fusion protein (GST-RAP)
- block of SP163M-induced phospho-Akt and phospho-ERK1/2 in PC12 cells (immunoblot); concentration of RAP used [6]: 150 nM

Substance: NGF: NGF-β purchased from Sigma, cell signaling control [reference compound]
- activation of ERK1/2 (cell signaling control) (LRP1; 0.36 nM, 10 min): also activated ERK1/2

Substance: SIPPEVKFNKPFVFLMIEQNTKSPLFMGKVVNP (SIPPEVKFNKPFVFLMIEQNTKSPLFMGKVVNP; SP16 peptide core sequence including the LRP1 binding site; listed as Homo sapiens) [SP8, reference compound]
- NFkB induction by the peptide alone (NFκB [7]): showed NFkB inducible properties without the need for LPS
- NFκB activity (NFκB inducible SEAP in supernatant) (NFκB [1]): neither the scrambled core control peptide nor the AAT 0-36 fragment decreased the NFκB activity
